As usually defined, the IC50 is the midpoint of a concentration-inhibition curve. By GI50 is commonly meant the concentration that inhibits growth by half.

The target in assay [1] is Prostaglandin G/H synthase 1 (Homo sapiens, UniProt P23219). The assay can be described thus: Inhibition of COX1 (unknown origin) by solid phase ELISA method. Background: An ELISA detects its analyte on a solid surface through an enzyme-linked reagent.
The nature of assay [2]: Inhibition of mouse B-Raf V600E mutant assessed as as reduction in human N-terminal His-tagged MEK1 phosphorylation pre-incubated with compound for 1 hr.
The subject of assay [3] is HeLa. The assay can be described thus: Antiproliferative activity against human HeLa cells after 24 hrs by MTT assay. It counts as functional.
The nature of assay [4]: Antiproliferative activity against human WM266.4 cells after 24 hrs by MTT assay. The settings on record: WM 266-4, 24 h. The class given is functional. (Tetrazolium dyes change colour on reduction, which living cells bring about.)
The species entered for assay [5] is Homo sapiens. Put plainly: Selectivity index, ratio of IC50 for COX1 (unknown origin) to IC50 for COX2 (unknown origin).
The target in assay [6] is T1, Prostaglandin G/H synthase 2 (Homo sapiens, UniProt P35354).
T1 sequence (P35354 whole entry): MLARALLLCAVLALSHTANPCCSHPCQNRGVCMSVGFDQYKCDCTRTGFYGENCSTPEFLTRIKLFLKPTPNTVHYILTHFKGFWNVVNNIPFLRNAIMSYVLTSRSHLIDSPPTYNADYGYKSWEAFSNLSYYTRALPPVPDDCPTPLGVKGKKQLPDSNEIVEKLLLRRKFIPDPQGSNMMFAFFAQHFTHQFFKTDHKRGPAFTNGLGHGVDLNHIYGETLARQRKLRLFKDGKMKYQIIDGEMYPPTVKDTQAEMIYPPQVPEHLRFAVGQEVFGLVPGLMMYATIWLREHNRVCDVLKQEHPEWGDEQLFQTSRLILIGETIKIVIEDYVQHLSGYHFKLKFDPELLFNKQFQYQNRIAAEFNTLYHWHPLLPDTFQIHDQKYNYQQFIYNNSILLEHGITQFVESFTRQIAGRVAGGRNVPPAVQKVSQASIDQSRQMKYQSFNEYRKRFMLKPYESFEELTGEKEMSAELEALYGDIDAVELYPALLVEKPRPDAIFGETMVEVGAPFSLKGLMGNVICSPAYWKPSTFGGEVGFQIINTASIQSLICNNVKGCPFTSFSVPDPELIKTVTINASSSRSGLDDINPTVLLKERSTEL
The assay can be described thus: Inhibition of COX2 (unknown origin) by solid phase ELISA method.

Sequence of Prostaglandin G/H synthase 1 (P23219 whole entry): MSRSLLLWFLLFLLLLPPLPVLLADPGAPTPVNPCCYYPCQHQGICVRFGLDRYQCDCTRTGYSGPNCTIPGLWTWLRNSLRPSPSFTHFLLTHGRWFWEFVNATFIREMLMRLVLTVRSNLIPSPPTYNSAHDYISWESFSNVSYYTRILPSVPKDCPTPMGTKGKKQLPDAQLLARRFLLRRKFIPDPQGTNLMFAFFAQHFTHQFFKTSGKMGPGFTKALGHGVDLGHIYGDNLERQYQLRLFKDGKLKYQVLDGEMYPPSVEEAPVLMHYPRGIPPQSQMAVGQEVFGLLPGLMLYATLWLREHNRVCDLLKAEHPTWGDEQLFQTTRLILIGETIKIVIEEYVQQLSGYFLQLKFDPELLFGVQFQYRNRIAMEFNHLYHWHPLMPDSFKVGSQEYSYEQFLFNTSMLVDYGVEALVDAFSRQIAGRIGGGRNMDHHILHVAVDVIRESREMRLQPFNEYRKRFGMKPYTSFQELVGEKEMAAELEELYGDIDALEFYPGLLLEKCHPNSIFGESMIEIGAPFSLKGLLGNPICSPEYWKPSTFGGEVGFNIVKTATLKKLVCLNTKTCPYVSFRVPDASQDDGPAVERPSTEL

Take `CS(=O)(=O)c1ccc(N2N=C(C(F)(F)F)CC2c2cccc3c2OCCO3)cc1` (stereo not given): the IC50 was found to be 40.6 µM in assay [1] and 0.12 µM in assay [2]. In addition, the GI50 was determined as 26 µM in assay [3] and 0.76 µM in assay [4].
Turning to `O=S(=O)(c1ccccc1)N1N=C(C(F)(F)F)CC1c1ccc2c(c1)OCCO2` (stereo not given), the values for the half-maximal inhibitory concentration (IC50) in assay [1] and in assay [2] were 106 µM and greater than 100 µM, respectively. In assay [5], the Ratio IC50 came to 54. Further, the GI50 in assay [3] is 58.9 µM; in assay [4], greater than 500 µM.
The like results for `NS(=O)(=O)c1ccc(N2N=C(C(F)(F)F)CC2c2cccc3c2OCO3)cc1` (stereo not given) were, in that order, 10 µM, 1.77 µM, 197, 26.2 µM and 1.32 µM.
In the case of `CS(=O)(=O)c1ccc(N2N=C(C(F)(F)F)CC2c2cccc3ccccc23)cc1` (stereo not given), the half-maximal inhibitory concentration (IC50) in assay [1] amounted to 15.2 µM; in assay [2] it was 8.53 µM. The GI50 turned out to be 33.3 µM in assay [3] and 10.6 µM in assay [4].
Regarding `O=S(=O)(c1ccccc1)N1N=C(C(F)(F)F)CC1c1cccc2c1OCO2` (stereo not given), the half-maximal inhibitory concentration (IC50) stood at 8.75 µM in assay [1] and 9.46 µM in assay [2]. For the same compound, the Ratio IC50 in assay [5] came out at 0.14. In addition, the GI50 in assay [3] is greater than 500 µM; in assay [4], 13.6 µM.
The like results for `O=S(=O)(c1ccccc1)N1N=C(C(F)(F)F)CC1c1ccc2c(c1)OCO2` (stereo not given) were, in that order, 14.1 µM, 2.41 µM, 2.5, 34.6 µM and 1.63 µM.
Consider `Cc1ccc(S(=O)(=O)N2N=C(C(F)(F)F)CC2c2cccc3ccccc23)cc1` (stereo not given), for which the figures for the IC50 in assay [1] and in assay [2] were 153 µM and 1.01 µM, respectively. The Ratio IC50 in assay [5] was found to be 1.7. The GI50 was greater than 500 µM in assay [3] and 1.06 µM in assay [4].
On to `Cc1ccc(S(=O)(=O)N2N=C(C(F)(F)F)CC2c2ccc3ccccc3c2)cc1` (stereo not given), for which the results for the IC50 in assay [1] and in assay [2] were greater than 500 µM and 0.85 µM, respectively. Further, the Ratio IC50 in assay [5] was found to be 10.7. Moreover, the GI50 is greater than 500 µM in assay [3] and 1.01 µM in assay [4].
On to `Cc1ccc(S(=O)(=O)N2N=C(C(F)(F)F)CC2c2cccc3c2OCO3)cc1` (stereo not given), for which the figures for the concentration for half-maximal inhibition (IC50) in assay [1] and in assay [2] were 10.4 µM and 1.11 µM, respectively. Also, the GI50 is greater than 500 µM in assay [3] and 1.08 µM in assay [4].
In the case of `O=S(=O)(c1ccccc1)N1N=C(C(F)(F)F)CC1c1cccc2c1OCCO2` (stereo not given), the IC50 in assay [1] amounted to 100 µM; in assay [2] it was 5.24 µM. Also, the Ratio IC50 in assay [5] was 3.7. Further, the GI50 stood at 127 µM in assay [3] and 3.87 µM in assay [4].
With `CCCS(=O)(=O)Nc1ccc(F)c(C(=O)c2c[nH]c3ncc(-c4ccc(Cl)cc4)cc23)c1F` [VEMURAFENIB], the IC50 in assay [2] was 0.06 µM.
On to `CS(=O)(=O)c1ccc(N2N=C(C(F)(F)F)CC2c2cccc3c2OCO3)cc1` (stereo not given), for which the IC50 in assay [1] was determined as 10.8 µM; in assay [2], 9.86 µM. In addition, the Ratio IC50 in assay [5] amounted to 269. Moreover, the 50% growth inhibitory concentration (GI50) in assay [3] worked out at 38.6 µM; in assay [4], 16.8 µM.
The like results for `CS(=O)(=O)c1ccc(N2N=C(C(F)(F)F)CC2c2ccc3ccccc3c2)cc1` (stereo not given) were, in that order, 38.7 µM, 0.67 µM, 2.2, 63.6 µM and 0.97 µM.
Turning to `Cc1ccc(S(=O)(=O)N2N=C(C(F)(F)F)CC2c2ccc3c(c2)OCO3)cc1` (stereo not given), the IC50 in assay [1] came to 3.72 µM; in assay [2] it was 2.26 µM. In assay [5], the Ratio IC50 amounted to 7. Also, the GI50 turned out to be 28.7 µM in assay [3] and 1.63 µM in assay [4].
Consider `Cc1ccc(S(=O)(=O)N2N=C(C(F)(F)F)CC2c2cccc3c2OCCO3)cc1` (stereo not given), for which the IC50 was 15.4 µM in assay [1], greater than 500 µM in assay [6] and 1.74 µM in assay [2]. Also, the Ratio IC50 in assay [5] worked out at 0.01. In addition, the values for the GI50 in assay [3] and in assay [4] were greater than 500 µM and 1.34 µM, respectively.
As for `O=c1[nH]cc(F)c(=O)[nH]1` [FLUOROURACIL], the GI50 is 30.2 µM in assay [3] and 28.8 µM in assay [4].
Consider `NS(=O)(=O)c1ccc(N2N=C(C(F)(F)F)CC2c2ccc3c(c2)OCCO3)cc1` (stereo not given), for which the half-inhibitory concentration (IC50) was found to be 41.5 µM in assay [1] and 17 µM in assay [2]. Moreover, in assay [5], the Ratio IC50 is greater than 500. In addition, the GI50 in assay [3] was 19.9 µM; in assay [4], 132 µM.
As to `CS(=O)(=O)c1ccc(N2N=C(C(F)(F)F)CC2c2ccc3c(c2)OCCO3)cc1` (stereo not given), the figures for the IC50 in assay [1] and in assay [2] were 64.9 µM and 0.89 µM, respectively. Besides, the Ratio IC50 in assay [5] came out at 270. Moreover, the GI50 came to 23.5 µM in assay [3] and 1.12 µM in assay [4].
With `NS(=O)(=O)c1ccc(N2N=C(C(F)(F)F)CC2c2ccc3c(c2)OCO3)cc1` (stereo not given), the results for the IC50 in assay [1] and in assay [2] were 19 µM and 3.84 µM, respectively. Besides, in assay [5], the Ratio IC50 is greater than 500. The same compound gave a GI50 in assay [4] of 2.47 µM.
For the compound `NS(=O)(=O)c1ccc(N2N=C(C(F)(F)F)CC2c2ccc3ccccc3c2)cc1` (stereo not given), the IC50 in assay [1] was found to be 19 µM; in assay [2], 1.15 µM. Moreover, the Ratio IC50 in assay [5] turned out to be 1.3. Further, the GI50 was determined as 49.8 µM in assay [3] and 1.09 µM in assay [4].
Turning to `O=S(=O)(c1ccccc1)N1N=C(C(F)(F)F)CC1c1cccc2ccccc12` (stereo not given), the IC50 was 17.6 µM in assay [1] and 1.24 µM in assay [2]. In assay [5], the Ratio IC50 was found to be 0.26. Also, the 50% growth inhibitory concentration (GI50) is greater than 500 µM in assay [3] and 1.18 µM in assay [4].
The corresponding values for `NS(=O)(=O)c1ccc(N2N=C(C(F)(F)F)CC2c2cccc3c2OCCO3)cc1` (stereo not given) are 34.5 µM, 0.15 µM, greater than 500, 26 µM and 0.82 µM.
Take `CS(=O)(=O)c1ccc(N2N=C(C(F)(F)F)CC2c2ccc3c(c2)OCO3)cc1` (stereo not given): the IC50 in assay [1] amounted to 57.5 µM; in assay [2], 0.49 µM. In addition, the Ratio IC50 in assay [5] amounted to 411. In addition, the GI50 in assay [3] was found to be 27.6 µM; in assay [4], 0.89 µM.
Turning to `O=S(=O)(c1ccccc1)N1N=C(C(F)(F)F)CC1c1ccc2ccccc2c1` (stereo not given), the IC50 in assay [1] was 7.23 µM; in assay [6], 174 µM; in assay [2], greater than 100 µM. The Ratio IC50 in assay [5] stood at 0.04. The GI50 in assay [3] and in assay [4] was greater than 500 µM each time.
`Cc1ccc(S(=O)(=O)N2N=C(C(F)(F)F)CC2c2ccc3c(c2)OCCO3)cc1` (stereo not given): the IC50 was 4.63 µM in assay [1] and 0.25 µM in assay [2]. In assay [5], the Ratio IC50 came out at 3.5. The figures for the GI50 in assay [3] and in assay [4] were 24.8 µM and 0.83 µM, respectively.
On to `NS(=O)(=O)c1ccc(N2N=C(C(F)(F)F)CC2c2cccc3ccccc23)cc1` (stereo not given), for which the IC50 in assay [1] came out at 17 µM; in assay [2], 8.23 µM. For the same compound, the values for the GI50 in assay [3] and in assay [4] were 29.5 µM and 8.91 µM, respectively.

Source of the values: ChEMBL document CHEMBL3352811, “Novel pyrazoline derivatives as bi-inhibitor of COX-2 and B-Raf in treating cervical carcinoma” (Bioorg Med Chem, 2014).
